# Data from patent US20220151999A1, “METHODS OF TREATING ATTENTION DEFICIT HYPERACTIVITY DISORDER USING KDM1A INHIBITORS SUCH AS THE COMPOUND VAFIDEMSTAT” (ORYZON GENOMICS, S.A., priority 2019, published 2022).
# Columns and labels:
# Format in all cases: in vivo, human
# ADHD patients [1] = assay: REIMAGINE Phase IIa trial, ADHD cohort: safety and tolerability; settings: adult ADHD patients, 1.2 mg/day oral, 5 days on/2 days off, 8 weeks
# Description: (§1) As part of a Phase IIa clinical trial (REIMAGINE trial, EudraCT number 2018-002140-88) to evaluate the safety, tolerability and efficacy of the KDM1A inhibitor vafidemstat to treat aggression in adult population in patients with different CNS disorders, a cohort of ADHD patients was recruited and treated with vafidemstat for 8 weeks. A summary of the protocol of this clinical trial and results obtained in the ADHD cohort are provided below.
# Reimagine is a unicenter, open-label, 1-arm, 8-week clinical study to evaluate the efficacy, safety and tolerability of vafidemstat in aggression in adult population with Alzheimer's Disease (AD), Lewy Body Dementia (LBD), Adult attention Deficit Hyperactivity Disorder (ADHD), Borderline Personality Disorder (BPD) and Autism Spectrum Disorder (ASD). Six patients to be recruited per disorder.
# Main objective of the trial: To evaluate the safety and tolerability of vafidemstat in adult population with Alzheimer's Disease (AD), Lewy Body Dementia (LBD), Adult attention deficit hyperactivity disorder (ADHD), Borderline Personality Disorder (BPD), Autism Spectrum Disorder (ASD)
# Treatment: All patients received vafidemstat (as free base) at a dose of 1.2 mg/day, administered orally as a single capsule, in a 5 days on/2 days off schedule, during 8 weeks. […]
# ADHD patients [2] = assay: REIMAGINE Phase IIa trial, ADHD cohort: ADHD Rating Scale (ADHD-RS); settings: adult ADHD patients (5 eligible), 1.2 mg/day oral, 5 days on/2 days off, 8 weeks; paired one-tail t-test p=0.0279
# Description: as §1
# (§2) Reimagine is a unicenter, open-label, 1-arm, 8-week clinical study to evaluate the efficacy, safety and tolerability of vafidemstat in aggression in adult population with Alzheimer's Disease (AD), Lewy Body Dementia (LBD), Adult attention Deficit Hyperactivity Disorder (ADHD), Borderline Personality Disorder (BPD) and Autism Spectrum Disorder (ASD). Six patients to be recruited per disorder. […]
# (§3) Evaluation of the effect of treatment with vafidemstat on aggression was performed using the Clinical Global Impression (CGI) scale. […] In addition to assessing its effect on aggression, the effect of treatment with vafidemstat on ADHD patients was also evaluated using the Attention Deficit Hyperactivity Disorder Rating Scale (ADHD-RS), a validated scale that is specific for ADHD and is widely used to evaluate ADHD in adults. […] Each item is scored from 0 to 3 points, with the highest scores indicating the presence of problematic symptoms/behavior. […]
# ADHD patients [3] = assay: REIMAGINE Phase IIa trial, ADHD cohort: aggression by Clinical Global Impression (CGI-S, CGI-I) scales; settings: adult ADHD patients (5 eligible), 1.2 mg/day oral, 5 days on/2 days off, 8 weeks
# Description: as §1, §2, §3
smiles,measurement,setting,value
"Nc1nnc(CN[C@@H]2C[C@H]2c2ccc(OCc3ccccc3)cc2)o1 [vafidemstat, 5-((((1R,2S)-2-(4-(benzyloxy)phenyl)cyclopropyl)amino)methyl)-1,3,4-oxadiazol-2-amine]",safety and tolerability of treatment,ADHD patients [1],"safe and well tolerated, without significant adverse events"
same,"ADHD-RS score, change from visit 1 (baseline) to visit 7",ADHD patients [2],statistically significant reduction
same,"CGI-Severity (CGI-S) score, aggression, change from visit 1 (baseline) to visit 7",ADHD patients [3]; paired one-tail t-test p=0.0043,statistically significant reductions
same,"CGI-Improvement (CGI-I) score, aggression, change from visit 1 (baseline) to visit 7",ADHD patients [3]; paired one-tail t-test p=0.0352,statistically significant reductions
